Test results as given in patent publication US20250092039A1, “GLUTARIMIDE-CONTAINING PAN-KRAS-MUTANT DEGRADER COMPOUNDS AND USES THEREOF” (Tiger Biotherapeutics Inc., priority 2022, published 2025).

Assays:
SW620 cells = experiment: 3D cell growth inhibition of SW620 cells carrying endogenous KRAS G12V mutation (CellTiter-Glo 3D, GI50); format: cell-based; details: Homo sapiens, SW-620, 144 h; SW620 cells, 6 days; read-out: SW620 3D cell growth GI50
Procedure, shortened: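 SW620 cells (endogenous KRAS G12V) grown in 3D were dosed next day with compound from DMSO stocks at various concentrations, then incubated 6 days at 37° C.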

KRAS G12V = KRAS G12V (Homo sapiens (Human), UniProt P01116, G12V); experiment: KRAS G12V degradation in SW620 cells (Western blot, DC50); format: cell-based; details: 24 hours
Procedure, shortened: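 SW620 cells (homozygous KRAS G12V) were treated with compound for 24 hours at 37° C. KRAS in lysates was measured by Western blot with fluorescent secondary antibodies and expressed relative to DMSO vehicle (100%). DC50 came from a four-parameter variable-slope dose-response fit.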

KRAS-G12V/RAF1 = KRAS-G12V/RAF1 (Homo sapiens (Human), UniProt P01116, G12V); experiment: KRAS/RAF1 binding inhibition assay (AlphaScreen)
Procedure, shortened: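 Binding of GppNHp-loaded KRAS G12V to the RAF1 RBD was measured by AlphaScreen with test compound present in 2% DMSO (final), 60 min incubation at 4° C. Signals were converted to % inhibition versus DMSO, and IC50 was obtained by variable-slope nonlinear regression.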

Sequence of KRAS G12V (P01116-2 other isoform, or with tags, fused parts or gaps G12V): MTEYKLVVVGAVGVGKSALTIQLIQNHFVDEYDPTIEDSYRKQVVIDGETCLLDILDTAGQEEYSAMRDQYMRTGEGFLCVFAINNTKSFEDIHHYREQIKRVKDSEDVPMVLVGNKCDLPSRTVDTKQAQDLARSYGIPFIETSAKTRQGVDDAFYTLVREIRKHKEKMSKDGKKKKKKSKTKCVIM
Sequence of KRAS-G12V/RAF1 (P01116-2 other isoform, or with tags, fused parts or gaps G12V): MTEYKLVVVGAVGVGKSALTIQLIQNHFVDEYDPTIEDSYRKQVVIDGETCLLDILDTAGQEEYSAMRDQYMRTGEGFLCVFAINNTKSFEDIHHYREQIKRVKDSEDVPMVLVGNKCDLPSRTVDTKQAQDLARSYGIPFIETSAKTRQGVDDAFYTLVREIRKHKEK

| SMILES | GI50 (SW620 cells) [nM] | DC50 (KRAS G12V) [nM] | IC50 (KRAS-G12V/RAF1) [nM] |
| --- | --- | --- | --- |
| CCc1c(F)ccc2cc(O)cc(-c3ncc4c(N5CCC[C@@](C)(O)C5)nc(OCC5(CN6CCC7(CC6)CC(C)(CN6CCN(c8ccc9c(c8)CN([C@H]8CCC(=O)NC8=O)C9=O)CC6)C7)CC5)nc4c3F)c12 [Compound 150, (3S)-3-[5-[4-[[7-[[1-[[7-(8-ethyl-7-fluoro-3-hydroxy-1-naphthyl)-8-fluoro-4-[(3R)-3-hydroxy-3-methyl-1-piperidyl]pyrido[4,3-d]pyrimidin-2-yl]oxymethyl]cyclopropyl]methyl]-2-methyl-7-azaspiro[3.5]nonan-2-yl]methyl]piperazin-1-yl]-1-oxo-isoindolin-2-yl]piperidine-2,6-dione] | < 10 | < 1 | 20 to 200 |
| CCc1c(F)ccc2cc(O)cc(-c3ncc4c(N5CCC[C@@](C)(O)C5)nc(OCC5(CN6CCC(N7CCC8(CC7)CN(c7ccc9c(c7)CN(C7CCC(=O)NC7=O)C9=O)C8)CC6)CC5)nc4c3F)c12 (stereo partly drawn) [Compound 151, 3-(5-(7-(1-((1-(((7-(8-ethyl-7-fluoro-3-hydroxynaphthalen-1-yl)-8-fluoro-4-((R)-3-hydroxy-3-methylpiperidin-1-yl)pyrido[4,3-d]pyrimidin-2-yl)oxy)methyl)cyclopropyl)methyl)piperidin-4-yl)-2,7-diazaspiro[3.5]nonan-2-yl)-1-oxoisoindolin-2-yl)piperidine-2,6-dione] | < 10 | < 1 | 20 to 200 |
| CCc1c(F)ccc2cc(O)cc(-c3ncc4c(N5CCC[C@@](C)(O)C5)nc(OCC5(CN6CC(N7CCC8(CC7)CN(c7ccc9c(c7)CN(C7CCC(=O)NC7=O)C9=O)C8)C6)CC5)nc4c3F)c12 (stereo partly drawn) [Compound 152, 3-(5-(7-(1-((1-(((7-(8-ethyl-7-fluoro-3-hydroxynaphthalen-1-yl)-8-fluoro-4-((R)-3-hydroxy-3-methylpiperidin-1-yl)pyrido[4,3-d]pyrimidin-2-yl)oxy)methyl)cyclopropyl)methyl)azetidin-3-yl)-2,7-diazaspiro[3.5]nonan-2-yl)-1-oxoisoindolin-2-yl)piperidine-2,6-dione] | < 10 | < 1 | 20 to 200 |
| CCc1c(F)ccc2cc(O)cc(-c3ncc4c(N5CCC[C@@](C)(O)C5)nc(OCC5(CN6CC(N7CCC8(CCN(c9ccc%10c(c9)CN(C9CCC(=O)NC9=O)C%10=O)CC8)CC7)C6)CC5)nc4c3F)c12 (stereo partly drawn) [Compound 153, 3-(5-(9-(1-((1-(((7-(8-ethyl-7-fluoro-3-hydroxynaphthalen-1-yl)-8-fluoro-4-((R)-3-hydroxy-3-methylpiperidin-1-yl)pyrido[4,3-d]pyrimidin-2-yl)oxy)methyl)cyclopropyl)methyl)azetidin-3-yl)-3,9-diazaspiro[5.5]undecan-3-yl)-1-oxoisoindolin-2-yl)piperidine-2,6-dione] | < 10 | < 1 | 20 to 200 |
| CCc1c(F)ccc2cc(O)cc(-c3ncc4c(N5CCC[C@@](C)(O)C5)nc(OCC5(CN6CCC(N7CC8(CN(c9ccc%10c(c9)CN(C9CCC(=O)NC9=O)C%10=O)C8)C7)CC6)CC5)nc4c3F)c12 (stereo partly drawn) [Compound 154, 3-(5-(6-(1-((1-(((7-(8-ethyl-7-fluoro-3-hydroxynaphthalen-1-yl)-8-fluoro-4-((R)-3-hydroxy-3-methylpiperidin-1-yl)pyrido[4,3-d]pyrimidin-2-yl)oxy)methyl)cyclopropyl)methyl)piperidin-4-yl)-2,6-diazaspiro[3.3]heptan-2-yl)-1-oxoisoindolin-2-yl)piperidine-2,6-dione] | < 10 | < 1 | < 20 |
| CCc1c(F)ccc2cc(O)cc(-c3ncc4c(N5CCC[C@@](C)(O)C5)nc(OCC5(CN6CCC7(CC6)CN(C6CCN(c8ccc9c(c8)CN(C8CCC(=O)NC8=O)C9=O)CC6)C7)CC5)nc4c3F)c12 (stereo partly drawn) [Compound 155, 3-(5-(4-(7-((1-(((7-(8-ethyl-7-fluoro-3-hydroxynaphthalen-1-yl)-8-fluoro-4-((R)-3-hydroxy-3-methylpiperidin-1-yl)pyrido[4,3-d]pyrimidin-2-yl)oxy)methyl)cyclopropyl)methyl)-2,7-diazaspiro[3.5]nonan-2-yl)piperidin-1-yl)-1-oxoisoindolin-2-yl)piperidine-2,6-dione] | < 10 | < 1 | < 20 |

Results, then the molecule that gave them:

| GI50 (SW620 cells) [nM] | DC50 (KRAS G12V) [nM] | IC50 (KRAS-G12V/RAF1) [nM] | SMILES |
| --- | --- | --- | --- |
| < 10 | < 1 | 20 to 200 | CCc1c(F)ccc2cc(O)cc(-c3ncc4c(N5CCC[C@@](C)(O)C5)nc(OCC5(CN6CCN(C7CC8(C7)CN(c7ccc9c(c7)CN(C7CCC(=O)NC7=O)C9=O)C8)CC6)CC5)nc4c3F)c12 (stereo partly drawn) [Compound 161, 3-(5-(6-(4-((1-(((7-(8-ethyl-7-fluoro-3-hydroxynaphthalen-1-yl)-8-fluoro-4-((R)-3-hydroxy-3-methylpiperidin-1-yl)pyrido[4,3-d]pyrimidin-2-yl)oxy)methyl)cyclopropyl)methyl)piperazin-1-yl)-2-azaspiro[3.3]heptan-2-yl)-1-oxoisoindolin-2-yl)piperidine-2,6-dione] |
| < 10 | < 1 | 20 to 200 | CCc1c(F)ccc2cc(O)cc(-c3ncc4c(N5CCC[C@@](C)(O)C5)nc(OCC5(CN6CCN(C7CC8(CCN(c9ccc%10c(c9)CN(C9CCC(=O)NC9=O)C%10=O)CC8)C7)CC6)CC5)nc4c3F)c12 (stereo partly drawn) [Compound 162, 3-[5-[2-[4-[[1-[[7-(8-ethyl-7-fluoro-3-hydroxy-1-naphthyl)-8-fluoro-4-[(3R)-3-hydroxy-3-methyl-1-piperidyl]pyrido[4,3-d]pyrimidin-2-yl]oxymethyl]cyclopropyl]methyl]piperazin-1-yl]-7-azaspiro[3.5]nonan-7-yl]-1-oxo-isoindolin-2-yl]piperidine-2,6-dione] |
| < 10 | < 1 | < 20 | CCc1c(F)ccc2cc(O)cc(-c3ncc4c(N5CCC[C@@](C)(O)C5)nc(OCC5(CN6CCC7(CC6)CN(C6CN(c8ccc9c(c8)CN(C8CCC(=O)NC8=O)C9=O)C6)C7)CC5)nc4c3F)c12 (stereo partly drawn) [Compound 163, 3-[5-[3-[7-[[1-[[7-(8-ethyl-7-fluoro-3-hydroxy-1-naphthyl)-8-fluoro-4-[(3R)-3-hydroxy-3-methyl-1-piperidyl]pyrido[4,3-d]pyrimidin-2-yl]oxymethyl]cyclopropyl]methyl]-2,7-diazaspiro[3.5]nonan-2-yl]azetidin-1-yl]-1-oxo-isoindolin-2-yl]piperidine-2,6-dione] |
| < 10 | 1 to 10 | 20 to 200 | CCc1c(F)ccc2cc(O)cc(-c3ncc4c(N5CCC[C@@](C)(O)C5)nc(OCC5(CN6CCC7(CC6)CCN(C6CN(c8ccc9c(c8)CN(C8CCC(=O)NC8=O)C9=O)C6)CC7)CC5)nc4c3F)c12 (stereo partly drawn) [Compound 164, 3-(5-(3-(9-((1-(((7-(8-ethyl-7-fluoro-3-hydroxynaphthalen-1-yl)-8-fluoro-4-((R)-3-hydroxy-3-methylpiperidin-1-yl)pyrido[4,3-d]pyrimidin-2-yl)oxy)methyl)cyclopropyl)methyl)-3,9-diazaspiro[5.5]undecan-3-yl)azetidin-1-yl)-1-oxoisoindolin-2-yl)piperidine-2,6-dione] |
| > 100 | 1 to 10 | < 20 | CCc1c(F)ccc2cc(O)cc(-c3ncc4c(N5CCC[C@@](C)(O)C5)nc(OCC5(CN6CC7(CCN(C8CCN(c9ccc%10c(c9)CN(C9CCC(=O)NC9=O)C%10=O)CC8)CC7)C6)CC5)nc4c3F)c12 (stereo partly drawn) [Compound 166, 3-(5-(4-(2-((1-(((7-(8-ethyl-7-fluoro-3-hydroxynaphthalen-1-yl)-8-fluoro-4-((R)-3-hydroxy-3-methylpiperidin-1-yl)pyrido[4,3-d]pyrimidin-2-yl)oxy)methyl)cyclopropyl)methyl)-2,7-diazaspiro[3.5]nonan-7-yl)piperidin-1-yl)-1-oxoisoindolin-2-yl)piperidine-2,6-dione] |
| > 100 | 1 to 10 | 20 to 200 | CCc1cccc2cc(O)cc(-c3ncc4c(N5CCC[C@@](C)(O)C5)nc(OCC5(CN6CC(N7CC(N8CCN(c9ccc%10c(c9)CN([C@H]9CCC(=O)NC9=O)C%10=O)CC8)C7)C6)CC5)nc4c3F)c12 [Compound 168, (S)-3-(5-(4-(1′-((1-(((7-(8-ethyl-3-hydroxynaphthalen-1-yl)-8-fluoro-4-((R)-3-hydroxy-3-methylpiperidin-1-yl)pyrido[4,3-d]pyrimidin-2-yl)oxy)methyl)cyclopropyl)methyl)-[1,3′-biazetidin]-3-yl)piperazin-1-yl)-1-oxoisoindolin-2-yl)piperidine-2,6-dione] |
| > 100 | > 100 | 20 to 200 | C[C@@]1(O)CCCN(c2nc(OCC3(CN4CC(N5CC(N6CCN(c7ccc8c(c7)CN([C@H]7CCC(=O)NC7=O)C8=O)CC6)C5)C4)CC3)nc3c(F)c(-c4cc(O)cc5ccc(F)c(F)c45)ncc23)C1 [Compound 169, (S)-3-(5-(4-(1′-((1-(((7-(7,8-difluoro-3-hydroxynaphthalen-1-yl)-8-fluoro-4-((R)-3-hydroxy-3-methylpiperidin-1-yl)pyrido[4,3-d]pyrimidin-2-yl)oxy)methyl)cyclopropyl)methyl)-[1,3′-biazetidin]-3-yl)piperazin-1-yl)-1-oxoisoindolin-2-yl)piperidine-2,6-dione] |
